From the NIST ThermoML archive (doi:10.1016/j.jct.2018.12.026)
± gives the expanded uncertainty stated by the source.

Assays:
[1] = Liquid; Ebulliometric method (Recirculating still)
[2] = refractive index (Na D-line) (dimensionless); settings: 293.15 K; 101.33 kPa; Liquid; Standard Abbe refractometry

| Normal boiling temperature [1] [°C] | refractive index [2] | Structure (SMILES) |
| --- | --- | --- |
| 141.20 ± 0.2 | 1.3872 ± 0.0008 | CCC(=O)O [propanoic acid] |
| 99.10 ± 0.2 | 1.3839 ± 0.0005 | CCOC(=O)CC [ethyl propanoate] |
| 100.00 ± 0.2 | 1.333 ± 0.0005 | O [water] |
| 78.40 ± 0.2 | 1.3608 ± 0.0009 | CCO [ethanol] |
